Results: US20200222418A1, “USE OF PHENOTHIAZINE DERIVATIVE IN THE TREATMENT OF INFECTION CAUSED BY BACTERIA CARRYING TYPE IV PILI” (priority 2017, published 2020)

Columns and labels:
Type in all cases: cell-based, Neisseria meningitidis
[1] = tested on: N. meningitidis Nm2C4.3 strain; test: Bactericidal activity, colony forming unit count after treatment in liquid culture; conditions: 15 min; for bactericidal effect: Gentamicin 150 μg/ml, Trifluoperazine 10 to 50 μM
Procedure: N. meningitidis Nm2C4.3 strain grown in liquid culture at 10^7 CFU/ml were treated with increasing concentrations of Trifluoperazine (10 to 50 μM) or Gentamicin (150 μg/ml) for 15 minutes (A) Bactericidal activity was determined by the count of colony forming units on GCB agar plates 24 h after treatment. (B) Images of the non-treated bacteria or bacteria treated with 30 μM TFP grown for 24 h on GCB agar plates.
Nm2C4.3, a piliated capsulated Opa^−Opc^− variant of the serogroup C meningococcal clinical isolate 8013, was cultured in Dulbecco's Modified Eagle Medium (DMEM) 4.5 g/L-Glutamax media 0.1% BSA during two hours at 37° C. 5% CO2. A bacterial suspension at optical density (OD) 0.1 was then distributed in 24-well plate (1 ml/well). After 1 hour of incubation, Trifluoperazine (Sigma #T8516, stock solution in PBS) was added to obtain final concentrations of 10, 20, 30, 40, and 50 μM. Gentamicin (150 μg/ml in DMEM) and PBS alone were used as controls. After 15 min treatment, serial dilutions were performed in physiological water and 100 μl of each dilution were plated on Petri dishes containing GCB solid media (BD, Difco GC media) containing supplements, incubated overnight and the colony forming units were counted.

[2] = tested on: N. meningitidis 2C4.3 aggregates; conditions: for dispersion of bacterial aggregates formed in suspension: aggregates pre-formed 2 h, 20 min, Trifluoperazine 10-40 μM, Gentamicin 150 μg/ml, Cefotaxim 20 μg/ml
Procedure: N. meningitidis 2C4.3 was grown in liquid culture at 10^7 CFU/ml for 2 h to form bacterial aggregates and were treated with increasing concentrations of Trifluoperazine (10 to 40 μM), Gentamicin (150 μg/ml) or cefotaxim (20 μg/ml) for 20 minutes and bacterial aggregates were immediately visualized using a phase-contrast microscope. […] (B) Quantification of the bacterial aggregation was performed using Image J software.
N. meningitidis 2C4.3 wild type strain and the isogenic derivative mutant PilT ([…]PiIT) were grown in liquid culture at 10^7 CFU/ml for 2 h to form bacterial aggregates and then treated with 50 μM Trifluoperazine. Time lapse phase-contrast video microscopy was performed to visualize the effect on bacterial aggregates over time. Images were taken at the indicated time points of the video.
N. meningitidis 2C4.3 was grown in liquid culture at 10^7 CFU/ml for 2 h to form bacterial aggregates and were treated with 30 μM Trifluoperazine for 30 minutes to induce bacterial dispersion or PBS as a control. The medium was replaced to remove the Trifluoperazine and the reformation of bacterial aggregates were visualized overtime using a phase-contrast microscope.
Bacteria were grown in suspension for 2 h then Phenothiazine derivatives were added at the indicated concentrations.
N. meninigitidis 2C4.3 strain was grown in suspension in wells of a 24 well plate, containing 1 ml of DMEM medium supplemented with 10% heat-inactivated fetal calf serum. After 2 h of growth, Trifluoperazine (or control vehicle) was added at various concentrations ranging from 10 to 40 μM for 20 min and the bacterial aggregates were visualized over time using a phase-contrast microscope.
N. meninigitidis 2C4.3 strain was grown in suspension in wells of a 24 well plate, containing 1 ml of DMEM medium supplemented with 10% heat-inactivated fetal calf serum. After 2 h of growth, various concentrations (0.5 to 80 μM) of phenothiazine-derivative compounds or control vehicle (PBS or DMSO) were added to the wells for 30 min and the bacterial aggregates were visualized using a phase-contrast microscope. Were tested phenothiazine-derivative compounds of: • the Piperazine group: Trifluoperazine (Sigma #T8516), Fluphenazine (Sigma #F4765), Prochlorperazine (Sigma #P9178) Perphenazine (Sigma #P6402); • the Piperidine group: Thioridazine (Sigma #T9025) and Mesoridazin (Sigma #M4068); • the Aliphatic group: Chlorpromazine (Sigma #C8138), Promazine (Sigma #P6656), Triflupromazine (Sigma #1686003) and levomepromazine (Sigma #L0500000).

[3] = tested on: Nm2C4.3 microcolonies on HBMEC, human bone marrow endothelial cell line; test: Dispersion of meningococcal microcolonies on HBMEC (vascular colonisation index); conditions: 30 min, Trifluoperazine 10-40 μM, Gentamicin 150 μg/ml, Cefotaxim 20 μg/ml
Procedure: Human […] microvascular endothelial cells (HBMEC) were infected with Nm2C4.3 for 1 h 30, treated with Trifluoperazine (10-40 μM) for 30 minutes, before fixation and immunofluorescence analysis using anti-Nm2C4.3 antibody and Alexa Fluor 633 Phalloidin. (A) Representative fluorescence microscopy showing bacterial colony (white dots) formed at the surface of the endothelial cells. (B) Quantification of the bacterial colonization was performed using Image J software.
HBMEC, a human endothelial cell line isolated from […] capillaries (Schweitzer et al., 1997) were grown in Dulbecco's Modified Eagle Medium (DMEM) 4.5 g/L-Glutamax (ThermoFischer) 10% FBS. Cells were grown on Thermanox coverslips coated with gelatin 2% (BD Difco #214340) for 2 days to reach confluency. Cells were then infected with a suspension of Nm2C4.3 (˜10^7 CFU/ml) in DMEM/FBS during 30 minutes to allow bacterial adhesion. Cells were then washed three times with medium to remove non-adherent bacteria and infection was pursued for 1 h 30: adherent bacteria grew at the endothelial cell surface and formed micro-colonies. Trifluoperazine was then added to obtain final concentrations of 10, 20, 30 and 40 μM. After incubation for 30 minutes, cells were washed and fixed in 4% Paraformaldehyde for 10 min, washed three times with PBS, and permeabilized with 0.1% Triton X-100 in PBS for 10 min. Cells were blocked for 30 min with 3% BSA in PBS and were incubated for 2 h with the primary antibodies (Rabbit polyclonal anti-Nm2C4.3 strain, kindly provided by Dr X. Nassif, INEM, Paris). After three washes with PBS, cells were incubated for 1 h with […] anti-rabbit IgG (Jackson ImmunoResearch Laboratories), together with Alexa Fluor 633 Phalloidin (Thermofischer) and DAPI ([…], Sigma Aldrich) to stain Actin and nuclei, respectively. Labelled preparations were mounted in Glycergel media (DAKO) and image acquisitions were performed with a DM16000 microscope (Leica, X40). Quantification was done with ImageJ software (NIH). […]

CN1CCN(CCCN2c3ccccc3Sc3ccc(C(F)(F)F)cc32)CC1 [Trifluoperazine]
bactericidal effect [1]: moderate bactericidal effect | viable count of the culture ([1]; Trifluoperazine 10 to 30 μM, culture contained 10^7 CFU/ml): 10^6 CFU/ml | reversibility of the effect on aggregation upon removal of the drug ([2]; 30 μM for 30 minutes, then medium replaced): reversible | dispersion of bacterial aggregates formed in suspension [2]: induced their dispersion | time after addition within which dispersion of aggregates occurs ([2]; time lapse video microscopy, 50 μM): 10 to 15 min | dispersion of compact meningococcal microcolonies established at the endothelial cell surface [3]: induced their dispersion

CN[C@@H]1[C@@H](O)C(O[C@@H]2[C@@H](O)[C@H](O[C@H]3O[C@H]([C@@H](C)NC)CC[C@H]3N)[C@@H](N)C[C@H]2N)OC[C@]1(C)O (stereo partly drawn) [Gentamicin, (3R,4R,5R)-2-{[(1S,2S,3R,4S,6R)-4,6-diamino-3-{[(2R,3R,6S)-3-amino-6-[(1R)-1-(methylamino)ethyl]oxan-2-yl]oxy}-2-hydroxycyclohexyl]oxy}-5-methyl-4-(methylamino)oxane-3,5-diol]
bactericidal effect [1]: killed all bacteria | dispersion of bacterial aggregates formed in suspension [2]: did not significantly induce the dispersion | dispersion of compact meningococcal microcolonies established at the endothelial cell surface [3]: poorly induced the dispersion
